Patent US20220323402A1, “TREATMENT, AMELIORATION OR PREVENTION OF A VIRAL INFECTION” (priority 2019, published 2022)

Columns and labels:
[1] = system: ZIKV (Puerto Rico strain, PRVABC59); assay: Flow cytometry quantification of HepG2 cells positive for Flavivirus antigen after ZIKV infection; assay type: cell-based, Zika virus; conditions: HepG2, ZIKV moi=1, 48 h; FIG. 7C
Description: FIGS. 7A-7K: AHR signaling boosts ZIKV replication in vitro. Flow cytometry quantification of HepG2 cells positive for Flavivirus antigen. HepG2 cells were pre-treated with different concentrations of I3S, CH223191 or DMSO (vehicle) and infected with ZIKV (moi=1) for 48 h. Plots shown are representative of one experiment. Bar graphs (FIG. 7C) represent the mean+s.e.m. of Flavivirus antigen positive cells from at least three independent experiments. P values were determined by a one-way ANOVA followed by Tukey's post-hoc test.
Stock solutions of I3S and CH223191 were prepared in DMSO, aliquoted and stored according to manufacturer's instructions. For CH223191, cells were pre-treated for 90 minutes and then used for further studies. For I3S, cells were pre-treated overnight.
Cells were fixed and permeabilized using Cytofix/Cytoperm (BD Biosciences). Secondary antibody for flow cytometry was phycoerythrin (PE) goat anti-mouse IgG (BD Biosciences) at a concentration of 1:200. Cells were analyzed on a Guava easyCyte flow cytometer and data was processed using FlowJo software.

Cell cultures = assay: Cell viability by MTT assay; assay type: cell-based; conditions: at the concentrations tested; FIGS. 9A-9B
Description: FIGS. 9A and 9B: Toxicity of I3S and CH223191. Cell viability after treatment for 24 h with different concentrations of I3S (FIG. 9A) and CH223191 (FIG. 9B) evaluated by MTT assay.
Cell cultures grown in 96-well plates were exposed for 48 h to serial two-fold compound dilutions, three wells for each concentration and viability was measured with 3-(4,5-dimethylthiazol-2-yl)-2,5-diphenyl tetrazolium bromide (MTT, Sigma-Aldrich).

AHR [2] = assay: AHR modulation in NPCs, qPCR of AHR, CYP1A1, IDO1 and TDO2; assay type: cell-based, human; conditions: at the concentrations tested; NPCs 24 h; FIGS. 10A-10D
Description: FIGS. 10A-10D: AHR modulation in NPCs. NPCs were treated with I3S or a combination of I3S and CH223191. 24 h after treatment, NPCs were harvested for RNA extraction followed by qPCR analysis of AHR (FIG. 10A), CYP1A1 (FIG. 10B), IDO1 (FIG. 100) and TDO2 (FIG. 10D). Data represent the mean+s.e.m. from three independent experiments. P values were determined by Student's t-test.
RNA was extracted using the RNAeasy kit (Qiagen). cDNA was synthesized using the High-Capacity cDNA Reverse Transcription kit (Applied Biosystems) and qPCR was performed using TaqMan Fast Advanced Master Mix (Applied Biosystems). Gene expression was normalized to GAPDH. Primers and probes (Applied Biosystems) were: GAPDH Hs02786624_g1, IFNB1 Hs01077958_s1, AHR Hs00169233_m1, PML Hs00971694_m1, CYP1A1 Hs01054796_g1, IFITM1 Hs00705137_s1, CYP1B1 Hs02382916_s1, CXCL10 Hs00171042_m1, IDO1 Hs00984148_m1, IDO2 Hs01589373_m1, IFITM Hs00705137_s1, TDO Hs00194611_m1. Primers and probes for the specific detection of Zika virus RNA were utilized as previously described^81, 82. For viral load determination in vivo, brains and spleens from pups were macerated on trizol (Invitrogen) for RNA extraction. RNA pellets were resuspended in RNase-free water and quantified by spectrophotometry (NanoDrop—Thermo Scientific) and stored at −80° C. […] Quantification was compared with threshold cycle (Ct) value with a ZIKV plasmid standard curve.

AHR [3] = assay: AHR modulation in A549 cells, qPCR of AHR and CYP1A1; assay type: cell-based; conditions: 24 h; FIG. 61
Description: FIGS. 61A and 61B: AHR modulation by small molecules in A549 cells. A549 cells were treated with the indicated concentrations of I3S (FIG. 61A) or CH223191 (FIG. 61B) for 24 h. Then, cells were harvested for RNA extraction and qPCR analysis of AHR and CYP1A1.

[4] = system: DENV-1, DENV-2, DENV-3, DENV-4; assay: DENV plaque assay of supernatants of A549 cells; assay type: cell-based, dengue virus; conditions: A549 pretreated 24 h, moi=0.1; FIG. 62
Description: FIG. 62: AHR activation boosts DENV replication. A549 cells were pretreated with the indicated concentrations of I3S for 24 h and infected with DENV-2 (moi=0.1). 48 h p.i. supernatants were harvested for plaque assay.
FIGS. 63A-63D: AHR modulation affects DENV replication. Infectious virus particles in the supernatants of A549 cells pre-treated with CH2213191 and infected with DENV-1 (FIG. 63A), DENV-2 (FIG. 63B), DENV-3 (FIG. 63C) or DENV-4 (FIG. 63D) (moi=0.1). At 24 h p.i. supernatants were harvested for plaque assay.

ZIKV = assay: Effect of inhibitors of IFN signaling on ZIKV replication in HepG2 cells, plaque assay; assay type: cell-based, Zika virus; conditions: HepG2 pre-treated 24 h, plaque assay 24 h p.i.; FIG. 22
Description: HepG2 cells were pre-treated with DMSO (vehicle), JAK I Inhibitor, TSA, or NaF for 24 h and infected with ZIKV. Data represent the mean+s.e.m. from three independent experiments. P values were determined by a one-way ANOVA followed by Tukey's post-hoc test.
I3S (Indoxyl 3-sulfate, Sigma, used at 50-500 μM as indicated for each experiment), CH223191 (Tocris, used at 2-30 μM), Sodium fluoride (Sigma, 1 mM), Trichostatin A (Sigma, 100 nM), JAK I Inhibitor (Santa Cruz Biotechnology, 1 μM). HP163 was the generous gift of Hercules Pharmaceuticals, BV, (Galileiweg 8, 2333 BD, The Netherlands). CB7993113 has been described previously^80. HP163, is a monoalkylated amide of CB7993113 optimally formulated in a 5% tween, 45% PEG, 50% saline mixture. […] The structural formulas of the compounds used in this study are reproduced below.

O=S(=O)(O)Oc1c[nH]c2ccccc12 [I3S, Indoxyl 3-sulfate]
percentage of HepG2 cells expressing viral antigen [1]: increased
cytotoxic effects (Cell cultures): no cytotoxic effects were detected
AHR inhibition / activation (AHR [2]): activation
AHR activation in A549 cells (AHR [3]): activated
yield of the four DENV serotypes [4]: increased

[F-].[Na+] [NaF, Sodium fluoride]
ZIKV replication in presence of drugs that block IFN-I signaling (ZIKV): increase

CC(/C=C/C(=O)NO)=C\[C@@H](C)C(=O)c1ccc(N(C)C)cc1 [trichostatin A]
ZIKV replication in presence of drugs that block IFN-I signaling (ZIKV): increase

JAK inhibitor I
ZIKV replication in presence of drugs that block IFN-I signaling (ZIKV): increase
